According to PubChem BioAssay (NCI):
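Results reflect a 48-hour exposure of cells in 96-well plates to compound at five concentrations. TGI denotes the concentration required for complete inhibition of growth.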

Assays:
Experiment in all cases: growth of human tumour cells (NCI), 48 h
IGROV1 ovarian = tested on: IGROV1 ovarian
SK-MEL-28 melanoma = tested on: SK-MEL-28 melanoma
MDA-N = tested on: MDA-N
U251 CNS = tested on: U251 CNS
OVCAR-5 ovarian = tested on: OVCAR-5 ovarian
HS 578T breast = tested on: HS 578T breast
SF-268 CNS = tested on: SF-268 CNS
SW-620 colon = tested on: SW-620 colon
SR leukemia = tested on: SR leukemia
EKVX NSCLC = tested on: EKVX NSCLC
MALME-3M melanoma = tested on: MALME-3M melanoma
HCT-15 colon = tested on: HCT-15 colon
SK-MEL-5 melanoma = tested on: SK-MEL-5 melanoma
NCI-H226 lung = tested on: NCI-H226 lung
SN12C renal = tested on: SN12C renal
HCT-116 colon = tested on: HCT-116 colon
OVCAR-4 ovarian = tested on: OVCAR-4 ovarian
M14 melanoma = tested on: M14 melanoma
HL-60(TB) leukemia = tested on: HL-60(TB) leukemia
MDA-MB-435 = tested on: MDA-MB-435
PC-3 prostate = tested on: PC-3 prostate
CCRF-CEM leukemia = tested on: CCRF-CEM leukemia
SF-295 CNS = tested on: SF-295 CNS
ACHN renal = tested on: ACHN renal
A498 renal = tested on: A498 renal
NCI/ADR-RES ovarian = tested on: NCI/ADR-RES ovarian
NCI-H460 lung = tested on: NCI-H460 lung
MOLT-4 leukemia = tested on: MOLT-4 leukemia
UACC-62 melanoma = tested on: UACC-62 melanoma
NCI-H23 lung = tested on: NCI-H23 lung
786-0 renal = tested on: 786-0 renal
SNB-75 CNS = tested on: SNB-75 CNS
TK-10 renal = tested on: TK-10 renal
HOP-92 NSCLC = tested on: HOP-92 NSCLC
SF-539 CNS = tested on: SF-539 CNS
A549 NSCLC = tested on: A549 NSCLC
MDA-MB-231 breast = tested on: MDA-MB-231 breast
SK-MEL-2 melanoma = tested on: SK-MEL-2 melanoma
BT-549 breast = tested on: BT-549 breast
CAKI-1 renal = tested on: CAKI-1 renal
K-562 leukemia = tested on: K-562 leukemia
LOX IMVI melanoma = tested on: LOX IMVI melanoma
UACC-257 melanoma = tested on: UACC-257 melanoma
RPMI-8226 leukemia = tested on: RPMI-8226 leukemia
RXF 393 renal = tested on: RXF 393 renal
HT29 colon = tested on: HT29 colon
OVCAR-8 ovarian = tested on: OVCAR-8 ovarian
OVCAR-3 ovarian = tested on: OVCAR-3 ovarian
MCF7 breast = tested on: MCF7 breast
COLO 205 colon = tested on: COLO 205 colon
DU-145 prostate = tested on: DU-145 prostate
HCC-2998 colon = tested on: HCC-2998 colon
SNB-19 CNS = tested on: SNB-19 CNS
HOP-62 NSCLC = tested on: HOP-62 NSCLC
T-47D breast = tested on: T-47D breast
NCI-H522 lung = tested on: NCI-H522 lung
UO-31 renal = tested on: UO-31 renal
KM12 colon = tested on: KM12 colon
SK-OV-3 ovarian = tested on: SK-OV-3 ovarian

O=c1oc2ccc(Cl)cc2c2ccccc12
TGI (IGROV1 ovarian): > 100 µM
TGI (SK-MEL-28 melanoma): > 100 µM
TGI (MDA-N): > 100 µM
TGI (U251 CNS): 33.7 µM
TGI (OVCAR-5 ovarian): > 100 µM
TGI (HS 578T breast): 77.2 µM
TGI (SF-268 CNS): 50.5 µM
TGI (SW-620 colon): > 100 µM
TGI (SR leukemia): > 100 µM
TGI (EKVX NSCLC): > 100 µM
TGI (MALME-3M melanoma): > 100 µM
TGI (HCT-15 colon): > 100 µM
TGI (SK-MEL-5 melanoma): > 100 µM
TGI (NCI-H226 lung): > 100 µM
TGI (SN12C renal): > 100 µM
TGI (HCT-116 colon): > 100 µM
TGI (OVCAR-4 ovarian): > 100 µM
TGI (M14 melanoma): > 100 µM
TGI (HL-60(TB) leukemia): > 100 µM
TGI (MDA-MB-435): > 100 µM
TGI (PC-3 prostate): > 100 µM
TGI (CCRF-CEM leukemia): > 100 µM
TGI (SF-295 CNS): > 100 µM
TGI (ACHN renal): > 100 µM
TGI (A498 renal): > 100 µM
TGI (NCI/ADR-RES ovarian): > 100 µM
TGI (NCI-H460 lung): > 100 µM
TGI (MOLT-4 leukemia): > 100 µM
TGI (UACC-62 melanoma): > 100 µM
TGI (NCI-H23 lung): 58.2 µM
TGI (786-0 renal): > 100 µM
TGI (SNB-75 CNS): 97.4 µM
TGI (TK-10 renal): > 100 µM
TGI (HOP-92 NSCLC): 93.5 µM
TGI (SF-539 CNS): > 100 µM
TGI (A549 NSCLC): > 100 µM
TGI (MDA-MB-231 breast): 41.2 µM
TGI (SK-MEL-2 melanoma): 50.9 µM
TGI (BT-549 breast): 37 µM
TGI (CAKI-1 renal): > 100 µM
TGI (K-562 leukemia): > 100 µM
TGI (LOX IMVI melanoma): > 100 µM
TGI (UACC-257 melanoma): > 100 µM
TGI (RPMI-8226 leukemia): > 100 µM
TGI (RXF 393 renal): 58.9 µM
TGI (HT29 colon): > 100 µM
TGI (OVCAR-8 ovarian): > 100 µM
TGI (OVCAR-3 ovarian): > 100 µM
TGI (MCF7 breast): > 100 µM
TGI (COLO 205 colon): > 100 µM
TGI (DU-145 prostate): > 100 µM
TGI (HCC-2998 colon): > 100 µM
TGI (SNB-19 CNS): 45.1 µM
TGI (HOP-62 NSCLC): 45.1 µM
TGI (T-47D breast): > 100 µM
TGI (NCI-H522 lung): > 100 µM

O=C1C(Cl)C2(CC(/C=C/c3cccs3)=NN2c2cccc(S(=O)(=O)O)c2)N1c1nc2ccccc2s1 (centres undefined)
TGI (IGROV1 ovarian): > 100 µM
TGI (SK-MEL-28 melanoma): > 100 µM
TGI (MDA-N): > 100 µM
TGI (U251 CNS): > 100 µM
TGI (OVCAR-5 ovarian): > 100 µM
TGI (HS 578T breast): > 100 µM
TGI (SF-268 CNS): > 100 µM
TGI (SW-620 colon): > 100 µM
TGI (SR leukemia): > 100 µM
TGI (EKVX NSCLC): > 100 µM
TGI (MALME-3M melanoma): > 100 µM
TGI (HCT-15 colon): > 100 µM
TGI (SK-MEL-5 melanoma): > 100 µM
TGI (NCI-H226 lung): > 100 µM
TGI (SN12C renal): > 100 µM
TGI (HCT-116 colon): > 100 µM
TGI (OVCAR-4 ovarian): > 100 µM
TGI (M14 melanoma): > 100 µM
TGI (HL-60(TB) leukemia): > 100 µM
TGI (MDA-MB-435): > 100 µM
TGI (PC-3 prostate): > 100 µM
TGI (CCRF-CEM leukemia): 78.2 µM
TGI (ACHN renal): > 100 µM
TGI (A498 renal): > 100 µM
TGI (NCI/ADR-RES ovarian): > 100 µM
TGI (UO-31 renal): 23.8 µM
TGI (NCI-H460 lung): > 100 µM
TGI (MOLT-4 leukemia): > 100 µM
TGI (UACC-62 melanoma): > 100 µM
TGI (NCI-H23 lung): > 100 µM
TGI (786-0 renal): > 100 µM
TGI (SNB-75 CNS): > 100 µM
TGI (TK-10 renal): > 100 µM
TGI (HOP-92 NSCLC): > 100 µM
TGI (SF-539 CNS): > 100 µM
TGI (A549 NSCLC): > 100 µM
TGI (MDA-MB-231 breast): > 100 µM
TGI (SK-MEL-2 melanoma): > 100 µM
TGI (BT-549 breast): > 100 µM
TGI (CAKI-1 renal): > 100 µM
TGI (K-562 leukemia): > 100 µM
TGI (LOX IMVI melanoma): > 100 µM
TGI (UACC-257 melanoma): > 100 µM
TGI (RPMI-8226 leukemia): > 100 µM
TGI (RXF 393 renal): > 100 µM
TGI (HT29 colon): > 100 µM
TGI (OVCAR-8 ovarian): > 100 µM
TGI (MCF7 breast): > 100 µM
TGI (COLO 205 colon): > 100 µM
TGI (DU-145 prostate): > 100 µM
TGI (HCC-2998 colon): > 100 µM
TGI (KM12 colon): > 100 µM
TGI (SNB-19 CNS): > 100 µM
TGI (T-47D breast): > 100 µM
TGI (NCI-H522 lung): 38.5 µM

O=[N+]([O-])/C(C(Cl)=C(Cl)Cl)=C(/Br)SCc1ccccc1
TGI (IGROV1 ovarian): 13.3 µM
TGI (SK-MEL-28 melanoma): 4.09 µM
TGI (MDA-N): 4.04 µM
TGI (U251 CNS): 14.5 µM
TGI (OVCAR-5 ovarian): 18.5 µM
TGI (HS 578T breast): 47.7 µM
TGI (SF-268 CNS): 7.2 µM
TGI (SW-620 colon): 4.16 µM
TGI (SR leukemia): 4.2 µM
TGI (EKVX NSCLC): 12.5 µM
TGI (MALME-3M melanoma): 11.9 µM
TGI (HCT-15 colon): 4.98 µM
TGI (SK-MEL-5 melanoma): 16.4 µM
TGI (NCI-H226 lung): 14.9 µM
TGI (SN12C renal): 5.8 µM
TGI (HCT-116 colon): 4.13 µM
TGI (OVCAR-4 ovarian): 8.19 µM
TGI (M14 melanoma): 5.79 µM
TGI (HL-60(TB) leukemia): 0.905 µM
TGI (MDA-MB-435): 2.94 µM
TGI (PC-3 prostate): 7.21 µM
TGI (CCRF-CEM leukemia): 0.633 µM
TGI (SF-295 CNS): 31.5 µM
TGI (ACHN renal): 6.85 µM
TGI (A498 renal): 15.2 µM
TGI (NCI/ADR-RES ovarian): 15.3 µM
TGI (UO-31 renal): 5.72 µM
TGI (NCI-H460 lung): 24.1 µM
TGI (MOLT-4 leukemia): 1.03 µM
TGI (UACC-62 melanoma): 16.1 µM
TGI (NCI-H23 lung): 12 µM
TGI (786-0 renal): 4.64 µM
TGI (SNB-75 CNS): 9.02 µM
TGI (TK-10 renal): 9.61 µM
TGI (HOP-92 NSCLC): 5.28 µM
TGI (SF-539 CNS): 21.4 µM
TGI (A549 NSCLC): 15.2 µM
TGI (MDA-MB-231 breast): 6.06 µM
TGI (SK-MEL-2 melanoma): 13.8 µM
TGI (BT-549 breast): 4.22 µM
TGI (CAKI-1 renal): 3.65 µM
TGI (K-562 leukemia): 2.04 µM
TGI (LOX IMVI melanoma): 4.24 µM
TGI (UACC-257 melanoma): 11.3 µM
TGI (SK-OV-3 ovarian): 36.4 µM
TGI (RPMI-8226 leukemia): 3.39 µM
TGI (RXF 393 renal): 4.01 µM
TGI (HT29 colon): 4.92 µM
TGI (OVCAR-3 ovarian): 5.02 µM
TGI (MCF7 breast): 9.11 µM
TGI (COLO 205 colon): 3.43 µM
TGI (DU-145 prostate): 25.7 µM
TGI (HCC-2998 colon): 21.1 µM
TGI (KM12 colon): 28.5 µM
TGI (SNB-19 CNS): 27.7 µM
TGI (HOP-62 NSCLC): 41.7 µM
TGI (T-47D breast): 13.5 µM
TGI (NCI-H522 lung): 4.49 µM
